SMILES strings stand for the structures.

Data on 44 compounds can be found in patent US11124516B2, “Pyrrolo[1,2-A]pyrimidinyl carboxamide compounds and their use in the treatment of medical disorders” (Bial—Biotech Investments, Inc., priority 2016, dated 2021).

The target in the assay is T1, glucocerebrosidase (Gcase) (Homo sapiens, UniProt P04062).
T1 sequence (P04062 40-536): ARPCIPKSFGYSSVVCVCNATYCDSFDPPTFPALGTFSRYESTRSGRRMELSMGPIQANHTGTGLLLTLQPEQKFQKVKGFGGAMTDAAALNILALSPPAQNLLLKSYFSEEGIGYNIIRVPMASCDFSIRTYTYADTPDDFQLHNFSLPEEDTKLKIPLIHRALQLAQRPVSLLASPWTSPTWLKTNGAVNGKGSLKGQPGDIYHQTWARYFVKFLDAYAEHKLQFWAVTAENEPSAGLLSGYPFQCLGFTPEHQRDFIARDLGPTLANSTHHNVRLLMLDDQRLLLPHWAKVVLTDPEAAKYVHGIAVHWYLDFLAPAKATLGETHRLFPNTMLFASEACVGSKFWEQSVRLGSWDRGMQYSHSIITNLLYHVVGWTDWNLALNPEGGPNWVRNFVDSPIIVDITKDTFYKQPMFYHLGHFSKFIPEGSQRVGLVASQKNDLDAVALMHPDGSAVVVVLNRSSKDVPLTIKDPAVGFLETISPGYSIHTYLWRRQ
The assay is described as follows: Glucocerebrosidase (Gcase) activation assay, 4-methylumbelliferyl-beta-D-glucopyranoside substrate, fluorescence. It is filed as biochemical. To be noted: 10 nM GCase, 100 nM saposin C; for activation at 0.1 µM / activation at 1 µM: 0.25 h; for activation at 0.1 µM: pH 4.7, test compound at 0.1 μM, read-out: Percent Gcase Activation 0.1 μM Test Compound; for activation at 1 µM: pH 4.7, test compound at 1.0 μM, read-out: Percent Gcase Activation 1 μM Test Compound; for Percent Gcase Activation 0.1 μM Test Compound: test compound at 0.1 μM; for Percent Gcase Activation 0.1 μM Test Compound / Percent Gcase Activation 1 μM Test Compound: pH 4.7; for Percent Gcase Activation 1 μM Test Compound: test compound at 1.0 μM. As for the experimental part: The ability of exemplary compounds to activate glucocerebrosidase (Gcase) was measured.
A 484 μL aliquot of a 1.0 mg/mL solution of phosphatidylserine (PS) (Sigma P7769) in chloroform was evaporated under a stream of nitrogen for 1 hour. The lipid film was dissolved over 4 minutes of vigorous vortexing in 40 mL of 176 mM K2HPO4/50 mM citric acid (pH 4.7) containing 7.5 μL of triton X-100, resulting in a mixed micellar preparation with a composition of 0.32 mM triton and 0.37 mol % PS. 4-Methylumbelliferyl-beta-D-glucopyranoside (ACROS-337025000) was dissolved in the micellar solution to a final concentration of 2 mM for use as the reaction substrate.
Test compounds were diluted to the desired concentrations with dimethylsulfoxide (DMSO) from 10 mM stocks, and 0.41 μL of the DMSO compound mixture was added to 100 μL of micellar solution containing 10 nM GCase and 100 nM saposin C (Enzo ALX-201-262-C050). Pre-incubation was allowed to occur for 30 minutes at room temperature, after which the reaction was initiated by combining 25 μL of substrate solution with 25 μL of compound/GCase/saposin mixture. The reaction proceeded for 15 minutes at room temperature and was stopped by adding 150 μL of 1M glycine, pH 12.5. The endpoint of the reaction was monitored by measuring fluorescence intensity (excitation: 365 nm; emission: 440 nm) on a SpectraMax i3 instrument (Molecular Devices). Test compounds were screened at 1.0 and 0.1 μM final concentration, and subsequent 8-point dose response curves were obtained using 3-fold dilutions from a maximum final concentration of 5 μM.
For experiments in which the test compound was used at a concentration of 1.0 μM, the symbol “+” indicates less than 30% Gcase activation; the symbol “++” indicates Gcase activation in the range of 30% up to 60%; and the symbol “+++” indicates Gcase activation greater than 60%. For experiments in which the test compound was used at a concentration of 0.1 μM, the symbol “*” indicates less than 10% Gcase activation; the symbol “**” indicates Gcase activation in the range of 10% up to 20%; and the symbol “***” indicates greater than 20% Gcase activation.

Regarding `COCc1cc(C(F)F)n2ccc(C(=O)NC3(c4cc(F)cc(F)c4)CC3)c2n1` [III-9], the activation at 0.1 µM is under 10% and the activation at 1 µM is under 30%.
In the same order, the values of `CCCCO[C@H]1CC[C@H](NC(=O)c2ccn3c(C)cc(C4CCOCC4)nc23)CC1` [III-32] are under 10% and 30 to 60%.
Regarding `Cc1cc(-c2ncccn2)nc2c(C(=O)NC(C)(C)C3CC3)ccn12` [III-43], the activation at 0.1 µM was in the range of 10 to 20% and the activation at 1 µM was over 60%.
In the same order, the values of `Cc1cn2ccc(C(=O)NC(C)(C)C3CC3)c2nc1-c1ccc(F)cc1` [III-50] are under 10% and over 60%.
In the same order, the values of `COCC(NC(=O)c1ccn2c(C)cc(C)nc12)C1CC1` (stereo not shown) [III-66] are under 10% and under 30%.
With `Cc1cc(C)n2ccc(C(=O)NC(C)C3CCCCC3)c2n1` (stereo not shown) [III-67], the “Percent Gcase Activation 0.1 μM Test Compound” value is given as “*** (greater than 20% Gcase activation)” and the “Percent Gcase Activation 1 μM Test Compound” value is given as “+++ (Gcase activation greater than 60%)”.
For `COCC(C)(NC(=O)c1ccn2c(C)cc(C)nc12)c1ccccc1` (stereo not shown) [III-68], the activation at 0.1 µM is under 10% and the activation at 1 µM is over 60%.
The corresponding values for `Cc1cc(C)n2ccc(C(=O)NC(C)C3CCCC3)c2n1` (stereo not shown) [III-69] are 10 to 20% and over 60%.
In the same order, the values of `Cc1cc(C)n2ccc(C(=O)NC(CO)C34CC5CC(CC(C5)C3)C4)c2n1` (stereo not shown) [IV-34] are under 10% and 30 to 60%.
As for `Cc1cc(C)n2ccc(C(=O)NC(C)C3COc4ccccc4O3)c2n1` (stereo not shown) [IV-36], the “Percent Gcase Activation 0.1 μM Test Compound” value is reported as “* (less than 10% Gcase activation)” and the “Percent Gcase Activation 1 μM Test Compound” value is given as “+ (less than 30% Gcase activation)”.
On to `Cc1cc(C)n2ccc(C(=O)N[C@@H](C)c3nc4ccccc4n3C)c2n1` [IV-37], for which the activation at 0.1 µM was under 10% and the activation at 1 µM was under 30%.
For `Cc1cc(C)n2ccc(C(=O)NC(C)c3ccc(-c4cccnc4)cc3)c2n1` (stereo not shown) [IV-43], the activation at 0.1 µM was under 10% and the activation at 1 µM was in the range of 30 to 60%.
In the same order, the values of `CCC(NC(=O)c1ccn2c(C)cc(C)nc12)c1ncccc1C` (stereo not shown) [IV-57] are under 10% and under 30%.
With `COc1ccccc1C(C)NC(=O)c1ccn2c(C)cc(C)nc12` (stereo not shown) [IV-60], the activation at 0.1 µM was over 20% and the activation at 1 µM is over 60%.
In the same order, the values of `Cc1cc(C)n2ccc(C(=O)NC(C)c3ccccc3C)c2n1` (stereo not shown) [IV-63] are over 20% and over 60%.
In the same order, the values of `Cc1cc(C)n2ccc(C(=O)NC(C)c3ncc(-c4ccccc4)o3)c2n1` (stereo not shown) [IV-65] are 10 to 20% and over 60%.
`Cc1cc(C)n2ccc(C(=O)NC(C)c3ccccc3-n3cccn3)c2n1` (stereo not shown) [IV-67]: the activation at 0.1 µM is under 10% and the activation at 1 µM was 30 to 60%.
In the case of `Cc1cc(C)n2ccc(C(=O)NC(C)c3ccc(-n4cccn4)cc3)c2n1` (stereo not shown) [IV-68], the activation at 0.1 µM was 10 to 20% and the activation at 1 µM was over 60%.
For the compound `Cc1cc(C)n2ccc(C(=O)NC(C)c3nc(C4CCCCC4)no3)c2n1` (stereo not shown) [IV-69], the activation at 0.1 µM was in the range of 10 to 20% and the activation at 1 µM was over 60%.
The corresponding values for `Cc1cc(C)n2ccc(C(=O)NC(C)c3ccccc3-c3ccccc3)c2n1` (stereo not shown) [IV-70] are under 10% and over 60%.
With `CCC(NC(=O)c1ccn2c(C)cc(C)nc12)C12CC3CC(C1)C(C3)C2` (stereo not shown) [IV-72], the activation at 0.1 µM was over 20% and the activation at 1 µM is over 60%.
Turning to `COc1ccc(F)cc1C(C)NC(=O)c1ccn2c(C)cc(C)nc12` (stereo not shown) [IV-74], the activation at 0.1 µM was over 20% and the activation at 1 µM was over 60%.
On to `Cc1cc(C)n2ccc(C(=O)NC(C)c3cccc(-n4cccn4)c3)c2n1` (stereo not shown) [IV-75], for which the activation at 0.1 µM lay within 10 to 20% and the activation at 1 µM is over 60%.
Regarding `Cc1cc(C)n2ccc(C(=O)NC(C)c3nnn(C4CC4)n3)c2n1` (stereo not shown) [IV-76], the activation at 0.1 µM was under 10% and the activation at 1 µM was under 30%.
For `Cc1cc(C)n2ccc(C(=O)NC(C)c3ccc(-c4ccccc4)cc3)c2n1` (stereo not shown) [IV-77], the activation at 0.1 µM was over 20% and the activation at 1 µM was over 60%.
Regarding `Cc1cc(C)n2ccc(C(=O)NC(C)c3nnn(-c4ccccc4)n3)c2n1` (stereo not shown) [IV-80], the activation at 0.1 µM was under 10% and the activation at 1 µM is under 30%.
The corresponding values for `Cc1cc(C)n2ccc(C(=O)NC(Cc3ccccc3)c3ccccc3)c2n1` (stereo not shown) [IV-81] are over 20% and over 60%.
Take `Cc1cc(C)n2ccc(C(=O)NC(C)C3COc4ccccc4O3)c2n1` (stereo not shown) [IV-82]: the activation at 0.1 µM is under 10% and the “Percent Gcase Activation 1 μM Test Compound” value is recorded as “+++ (Gcase activation greater than 60%)”.
As to `CCC(NC(=O)c1ccn2c(C)cc(C)nc12)c1ccc(OC)cc1` (stereo not shown) [IV-83], the activation at 0.1 µM is over 20% and the activation at 1 µM was over 60%.
Take `Cc1cc(C)n2ccc(C(=O)N[C@H](C)c3ccc4c(c3)OCO4)c2n1` [IV-84]: the activation at 0.1 µM was 10 to 20% and the activation at 1 µM is over 60%.
Take `Cc1cc(C)n2ccc(C(=O)NC(C)c3nc4ccccc4n3C)c2n1` (stereo not shown) [IV-85]: the activation at 0.1 µM was under 10% and the activation at 1 µM was under 30%.
The corresponding values for `CCC(NC(=O)c1ccn2c(C)cc(C)nc12)c1nc2ccccc2[nH]1` (stereo not shown) [IV-86] are under 10% and under 30%.
The corresponding values for `Cc1cc(C)n2ccc(C(=O)NC(C)C3Oc4ccccc4C3C)c2n1` (stereo not shown) [IV-87] are 10 to 20% and over 60%.
The corresponding values for `CCOc1ccc(C(C)NC(=O)c2ccn3c(C)cc(C)nc23)cc1` (stereo not shown) [IV-88] are over 20% and over 60%.
In the case of `Cc1cc(C)n2ccc(C(=O)NC(C)C34CC5CC(C3)C(C5)C4)c2n1` (stereo not shown) [IV-89], the activation at 0.1 µM was over 20% and the activation at 1 µM was over 60%.
For `Cc1cc(C)n2ccc(C(=O)NC(CO)c3ccc4ccccc4c3)c2n1` (stereo not shown) [IV-90], the activation at 0.1 µM is under 10% and the activation at 1 µM was under 30%.
In the same order, the values of `Cc1ccc(C(CO)NC(=O)c2ccn3c(C)cc(C)nc23)c(C)c1` (stereo not shown) [IV-91] are under 10% and under 30%.
With `Cc1cc(C)n2ccc(C(=O)NC(CO)c3cccc(C)c3C)c2n1` (stereo not shown) [IV-92], the activation at 0.1 µM was under 10% and the activation at 1 µM was under 30%.
As for `Cc1cc(C)n2ccc(C(=O)NC(CO)c3ccc(C(C)C)cc3)c2n1` (stereo not shown) [IV-93], the activation at 0.1 µM is under 10% and the activation at 1 µM is under 30%.
With `Cc1cc(C)n2ccc(C(=O)NC(CO)c3cccc4ccccc34)c2n1` (stereo not shown) [IV-94], the activation at 0.1 µM is under 10% and the activation at 1 µM lay in the range of 30 to 60%.
The corresponding values for `Cc1cc(C)n2ccc(C(=O)N[C@H](C)c3cccc4c3CCCC4)c2n1` [IV-95] are 10 to 20% and over 60%.
`Cc1cc(C)n2ccc(C(=O)NC(C)(C)c3cccc(Cl)c3)c2n1` [IV-96]: the activation at 0.1 µM was over 20% and the activation at 1 µM was over 60%.
The corresponding values for `Cc1cc(C)n2ccc(C(=O)N[C@H](C)c3ccc(F)cc3)c2n1` [IV-97] are 10 to 20% and over 60%.
For `CCC(=O)Nc1ccc(C(C)NC(=O)c2ccn3c(C)cc(C)nc23)cc1` (stereo not shown) [IV-98], the activation at 0.1 µM is over 20% and the activation at 1 µM is over 60%.
